Experimental data taken from patent US20120108585A1, “BENZOXAZOLES, BENZTHIAZOLES AND RELATED ANALOGS AS SIRTUIN MODULATORS” (Sirtris Pharmaceuticals, Inc., priority 2008, published 2012).

Biological target: T1, SIRT1 (Homo sapiens, UniProt Q96EB6)
T1 sequence (Q96EB6 1-747): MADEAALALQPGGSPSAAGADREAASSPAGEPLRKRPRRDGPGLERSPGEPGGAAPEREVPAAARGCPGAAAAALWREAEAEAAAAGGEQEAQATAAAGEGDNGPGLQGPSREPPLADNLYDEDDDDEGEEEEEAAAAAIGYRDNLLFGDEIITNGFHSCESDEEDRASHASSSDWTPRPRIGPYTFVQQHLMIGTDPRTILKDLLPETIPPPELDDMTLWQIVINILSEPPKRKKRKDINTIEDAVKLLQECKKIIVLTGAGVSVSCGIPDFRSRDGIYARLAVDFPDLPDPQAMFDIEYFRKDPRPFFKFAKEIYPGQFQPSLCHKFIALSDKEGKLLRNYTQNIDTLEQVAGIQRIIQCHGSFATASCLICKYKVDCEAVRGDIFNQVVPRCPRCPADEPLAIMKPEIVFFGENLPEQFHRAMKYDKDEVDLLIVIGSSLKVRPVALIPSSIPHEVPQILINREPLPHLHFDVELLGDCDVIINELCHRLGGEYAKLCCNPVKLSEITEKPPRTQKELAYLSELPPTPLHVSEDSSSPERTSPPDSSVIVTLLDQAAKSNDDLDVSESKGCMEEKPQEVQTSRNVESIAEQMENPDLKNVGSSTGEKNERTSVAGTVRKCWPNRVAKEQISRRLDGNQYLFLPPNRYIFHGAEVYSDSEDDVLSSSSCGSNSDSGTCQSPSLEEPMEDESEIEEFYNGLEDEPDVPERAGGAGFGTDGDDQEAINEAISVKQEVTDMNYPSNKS
Assay: mass spectrometry based assay to identify modulators of SIRT1 activity (deacetylation of p53-based acetylated peptide)
Assay type: biochemical
Details: SIRT1 activation, 10 nM SIRT1, 0.5 μM peptide substrate, 120 μM βNAD+, 25 minutes at 25° C.; for Emax: 25 min, read-out: % Fold Act. (percent maximum fold activation)
Excerpt: A mass spectrometry based assay was used to identify modulators of SIRT1 activity. The mass spectrometry based assay utilizes a peptide having 20 amino acid residues as follows: Ac-EE-K(biotin)-GQSTSSHSK(Ac)NleSTEG-K(5TMR)-EE-NH2 (SEQ ID NO: 1) wherein K(Ac) is an acetylated lysine residue and Nle is a norleucine. The peptide is labeled with the fluorophore 5TMR (excitation 540 nm/emission 580 nm) at the C-terminus. The sequence of the peptide substrate is based on p53 with several modifications. In addition, the methionine residue naturally present in the sequence was replaced with the norleucine because the methionine may be susceptible to oxidation during synthesis and purification.
The mass spectrometry assay is conducted as follows: 0.5 μM peptide substrate and 120 μM βNAD^+ is incubated with 10 nM SIRT1 for 25 minutes at 25° C. in a reaction buffer (50 mM Tris-acetate pH 8, 137 mM NaCl, 2.7 mM KCl, 1 mM MgCl2, 5 mM DTT, 0.05% BSA). Test compounds may be added to the reaction as described above. The SirT1 gene is cloned into a T7-promoter containing vector and transformed into BL21(DE3). After the 25 minute incubation with SIRT1, 10 μL of 10% formic acid is added to stop the reaction. Reactions are sealed and frozen for later mass spec analysis. Determination of the mass of the substrate peptide allows for precise determination of the degree of acetylation (i.e. starting material) as compared to deacetylated peptide (product).
A control for inhibition of sirtuin activity is conducted by adding 1 μL of 500 mM nicotinamide as a negative control at the start of the reaction (e.g., permits determination of maximum sirtuin inhibition). A control for activation of sirtuin activity is conducted using 10 nM of sirtuin protein, with 1 μL of DMSO in place of compound, to determine the amount of deacetylation of the substrate at a given timepoint within the linear range of the assay. This timepoint is the same as that used for test compounds and, within the linear range, the endpoint represents a change in velocity.
For the above assay, SIRT1 protein was expressed and purified as follows. The SirT1 gene was cloned into a T7-promoter containing vector and transformed into BL21(DE3). The protein was expressed by induction with 1 mM IPTG as an N-terminal His-tag fusion protein at 18° C. overnight and harvested at 30,000×g. Cells were lysed with lysozyme in lysis buffer (50 mM Tris-HCl, 2 mM Tris[2-carboxyethyl]phosphine (TCEP), 10 μM ZnCl2, 200 mM NaCl) and further treated with sonication for 10 min for complete lysis. The protein was purified over a Ni-NTA column (Amersham) and fractions containing pure protein were pooled, concentrated and run over a sizing column (Sephadex S200 26/60 global). The peak containing soluble protein was collected and run on an Ion-exchange column (MonoQ). Gradient elution (200 mM-500 mM NaCl) yielded pure protein. This protein was concentrated and dialyzed against dialysis buffer (20 mM Tris-HCl, 2 mM TCEP) overnight. The protein was aliquoted and frozen at −80° C. until further use.
Sirtuin modulating compounds that activated SIRT1 were identified using the assay described above and are shown below in Table 1. The EC1-5 values for the activating compounds are represented by A (EC1-5<1.0 uM), B (EC1-5 1-25 uM), C (EC1-5>25 uM). The percent maximum fold activation is represented by A (Fold activation>150%) or B (Fold Activation<150%).

Emax | EC1.5 | SMILES
> 150% | A (EC1-5<1.0 uM) | O=C(Nc1cccc(CN2CCOCC2)n1)c1cccc2oc(-c3ccccc3C(F)(F)F)nc12 [Compound 140]
> 150% | B (EC1-5 1-25 uM) | O=C(Nc1nc(CN2CCOCC2)cs1)c1cccc2oc(-c3ccc(F)cc3C(F)(F)F)nc12 [Compound 145]
> 150% | A (EC1-5<1.0 uM) | O=C(Nc1cccc(CN2CCOCC2)n1)c1cccc2oc(-c3ccc(F)cc3C(F)(F)F)nc12 [Compound 146]
> 150% | A (EC1-5<1.0 uM) | O=C(Nc1cccc(CN2CCOCC2)n1)c1cccc2oc(-c3cc(F)ccc3C(F)(F)F)nc12 [Compound 150]

More lines, now with the values behind:

SMILES | Emax | EC1.5
O=C(Nc1nccs1)c1cccc2oc(-c3ccccc3OC(F)(F)F)nc12 [Compound 141] | > 150% | B (EC1-5 1-25 uM)
O=C(Nc1ccccn1)c1cccc2oc(-c3ccccc3OC(F)(F)F)nc12 [Compound 142] | > 150% | B (EC1-5 1-25 uM)
O=C(Nc1nccs1)c1cccc2oc(-c3ccc(F)cc3C(F)(F)F)nc12 [Compound 143] | < 150% | B (EC1-5 1-25 uM)
O=C(Nc1ccccn1)c1cccc2oc(-c3ccc(F)cc3C(F)(F)F)nc12 [Compound 144] | < 150% | B (EC1-5 1-25 uM)
O=C(Nc1nccs1)c1cccc2oc(-c3cc(F)ccc3C(F)(F)F)nc12 [Compound 147] | < 150% | C (EC1-5>25 uM)
O=C(Nc1ccccn1)c1cccc2oc(-c3cc(F)ccc3C(F)(F)F)nc12 [Compound 148] | < 150% | C (EC1-5>25 uM)
O=C(Nc1nc(CN2CCOCC2)cs1)c1cccc2oc(-c3cc(F)ccc3C(F)(F)F)nc12 [Compound 149] | > 150% | A (EC1-5<1.0 uM)
O=C(Nc1cccc(N2CCOCC2)n1)c1cccc2sc(-c3cccc(C(F)(F)F)c3)nc12 [Compound 151] | < 150% | A (EC1-5<1.0 uM)
O=C(Nc1cccc(N2CCCC2)n1)c1cccc2sc(-c3cccc(C(F)(F)F)c3)nc12 [Compound 153] | > 150% | B (EC1-5 1-25 uM)
O=C(Nc1ccnc(N2CCCC2)c1)c1cccc2sc(-c3cccc(C(F)(F)F)c3)nc12 [Compound 154] | > 150% | A (EC1-5<1.0 uM)
